Measurements from US5160526A, “Alkene stabilizers for 3-isothiazolone compounds” (priority 1991, dated 1992).

Format: physicochemical
Conditions: 2-propanol/water systems

Structure (SMILES) | stabilizing properties (in words)
C1=Cc2ccccc2C1 [indene] | failed to show any stabilizing properties
C1=CC2C3C=CC(C3)C2C1 (centres unmarked) [dicylopentadiene] | failed to show any stabilizing properties
